# Earlier results, collected in article PMC6225228, “Design, Synthesis and Evaluation of N-pyrazinylbenzamides as Potential Antimycobacterial Agents” (Molecules : A Journal of Synthetic Chemistry and Natural …, 2018).
# How the values were obtained:
# [1] = system: HepG2 cells; settings: read-out: Amide -CONH- IC50; cited from earlier work
# [2] = system: Mycobacterium tuberculosis H37Rv (Mtb); settings: Šula's semisynthetic medium, pH = 5.6, turbidity, cited from earlier work; for Amides MIC: first value; for Amides MIC (value in parentheses): second value in parentheses
SMILES,IC50 [1] [µM],Amides MIC [2] [µg/mL],Amides MIC (value in parentheses) [2] [µg/mL]
O=C(Nc1ccccc1O)c1cnc(Cl)cn1 [Amide R1=5-Cl R2=2-OH],30,3.13,0.78
CCc1ccc(NC(=O)c2cnc(Cl)cn2)cc1 [Amide R1=5-Cl R2=4-Et],7.2,1.56,0.78
